Patent US20070208087A1, “Compounds, compositions and methods for the treatment of inflammatory diseases” (priority 2001, published 2007)
Where “and” joins values, the source holds several entries; their conditions need not be identical. Equal values may be shown once. Read-outs that look alike come from different tables or passages of the source.

Experiments:
Assay type in all cases: cell-based
Microglial cells [1] = assay: Dose response inhibition of NO release from microglia, 0.75-200 μM (Example 8); settings: 48 hours
Procedure, shortened: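 Microglia plated at 1×10^5 cells/ml, stimulated with LPS/IFNγ and treated at 0.75, 1.56, 3.125, 6.25, 12.5, 25, 50, 100 and 200 μM. NO release measured after 48 hours by Griess reaction.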

Microglial cells [2] = assay: Dose response inhibition of NO release from microglia, 0.5-500 μM (Example 9); settings: for μM NO release / μM NO release (No LPS average subtracted): 3 replicates
Procedure, shortened: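 Cells seeded at 1×10^5 cells/ml and, after 48 h, stimulated with 10 ng/ml IFNγ plus 10 μg/ml LPS together with test compounds or L-NAME at 0.5–500 μM. NO release measured by Griess reaction after 48 h.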

[3] = test system: TNF-α release from microglia; assay: TNF-α release from LPS/IFNγ stimulated microglia, TNF-α ELISA (Example 11); settings: 50 uM compound, TNF-α release, 10 ug LPS and 10 ng IFNγ, 24 hours
Procedure, shortened: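 Microglia pretreated 1 h with 50 μM bis-/tris-dihydroxyaryl compound, then stimulated with 10 μg/ml LPS + 10 ng/ml IFNγ for 24 h. Medium sampled, stored at −80°, diluted 1:50 and TNF-α measured by ELISA.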

microglia = assay: Ranking of NO release inhibition (Example 12); settings: Microglia, ranking table
Excerpt: The bis- and tris-dihydroxyaryl compounds were ranked in order of effectiveness for the inhibition of NO release as set out in Table 8.

[4] = dose 0.5 μM, LPS/IFNγ, 48 hours
[5] = dose 100 μM, LPS/IFNγ, 48 hours
[6] = dose 250 μM, LPS/IFNγ, 48 hours
[7] = dose 500 μM, LPS/IFNγ, 48 hours

For `O=C(N[C@@H]1CCCC[C@H]1NC(=O)c1ccc(O)c(O)c1)c1ccc(O)c(O)c1` (relative stereo) [Compound 26, N,N′-bis(3,4-dihydroxybenzoyl)-trans-1,2-diaminocyclohexane], the “μM NO release” value (Microglial cells [1]; dose 100 μM, single replicates) was 15.938 µM and 20.156 µM and 19.688 µM, the “μM NO release Avg” value (Microglial cells [1]; dose 200 μM) was 13.490 µM and the “% inhibition” value (Microglial cells [1]; dose 200 μM, single replicates) was 40.26% and 47.32%. For the same compound, the “OD values (printed under head μM NO release)” value (Microglial cells [1]; dose 200 μM, single replicates) was 0.134 and 0.136 and 0.145, the “μM NO release” value (Microglial cells [1]; dose 200 μM, single replicates) was 12.813 µM and 13.125 µM and 14.531 µM and the inhibition at 0.5 µM (Microglial cells [2]; Microglia, 48 h, dose 0.5 μM, NO release, LPS/IFNγ, 48 hours, read-out: Avg % Inhibition) was -4.06%. It also gave an inhibition at 1 µM (Microglial cells [2]; Microglia, 48 h, dose 1 μM, NO release, LPS/IFNγ, 48 hours, read-out: Avg % Inhibition) of 0.51%, an inhibition at 5 µM (Microglial cells [2]; Microglia, 48 h, dose 5 μM, NO release, LPS/IFNγ) of -4.31% and an inhibition at 10 µM (Microglial cells [2]; Microglia, 48 h, dose 10 μM, NO release, LPS/IFNγ) of -1.01%. It also gave an inhibition at 25 µM (Microglial cells [2]; Microglia, 48 h, dose 25 μM, NO release, LPS/IFNγ) of 6.85%, an inhibition at 50 µM (Microglial cells [2]; Microglia, 48 h, dose 50 μM, NO release, LPS/IFNγ) of 6.59% and an inhibition at 100 µM (Microglial cells [2]; Microglia, 48 h, dose 100 μM, NO release, LPS/IFNγ, 48 hours, read-out: Avg % Inhibition) of 16.2%. The inhibition at 100 µM (Microglial cells [2]; Microglia, 48 h, dose 100 μM, individual replicates, NO release, LPS/IFNγ, 48 hours, read-out: % inhibition) was 17.2%, the inhibition at 250 µM (Microglial cells [2]; Microglia, 48 h, dose 250 μM, NO release, LPS/IFNγ, 48 hours, read-out: Avg % Inhibition) was 35.2% and the inhibition at 250 µM (Microglial cells [2]; Microglia, 48 h, dose 250 μM, individual replicates, NO release, LPS/IFNγ, 48 hours, read-out: % inhibition) was 36.3%. For the same compound, the inhibition at 500 µM (Microglial cells [2]; Microglia, 48 h, dose 500 μM, NO release, LPS/IFNγ, 48 hours, read-out: Avg % Inhibition) was 99.5%, the inhibition at 500 µM (Microglial cells [2]; Microglia, 48 h, dose 500 μM, individual replicates, NO release, LPS/IFNγ, 48 hours, read-out: % inhibition) was 98.4% and the inhibition at 500 µM (Microglial cells [2]; Microglia, 48 h, highest concentration tested (500 μM), 48 hours, read-out: inhibited NO release by) was 99%. For the same compound, the “μM NO release” value (Microglial cells [2]; [4]) was 21.667 µM and 19.306 µM and 21.111 µM, the “μM NO release (No LPS average subtracted)” value (Microglial cells [2]; [4]) was 19.97 µM and 17.61 µM and 19.41 µM and the “% inhibition” value (Microglial cells [2]; dose 0.5 μM, individual replicates, NO release, LPS/IFNγ, 48 hours) was −9.38% and 3.55% and −6.34%. The “μM NO release” value (Microglial cells [2]; dose 1 μM, LPS/IFNγ, 48 hours) was 19.722 µM and 19.028 µM and 20.833 µM, the “μM NO release (No LPS average subtracted)” value (Microglial cells [2]; dose 1 μM, LPS/IFNγ, 48 hours) was 18.02 µM and 17.33 µM and 19.13 µM and the “% inhibition” value (Microglial cells [2]; dose 1 μM, individual replicates, NO release, LPS/IFNγ, 48 hours) was 1.27% and 5.07% and −4.82%. For the same compound, the “μM NO release” value (Microglial cells [2]; dose 5 μM, LPS/IFNγ, 48 hours) was 20.000 µM and 21.528 µM and 20.694 µM, the “μM NO release (No LPS average subtracted)” value (Microglial cells [2]; dose 5 μM, LPS/IFNγ, 48 hours) was 18.30 µM and 19.83 µM and 18.99 µM and the “% inhibition” value (Microglial cells [2]; dose 5 μM, individual replicates, NO release, LPS/IFNγ, 48 hours) was −0.25% and −8.62%. The “μM NO release” value (Microglial cells [2]; dose 10 μM, LPS/IFNγ, 48 hours) was 20.139 µM and 19.583 µM and 20.694 µM, the “μM NO release (No LPS average subtracted)” value (Microglial cells [2]; dose 10 μM, LPS/IFNγ, 48 hours) was 18.44 µM and 17.88 µM and 18.99 µM and the “% inhibition” value (Microglial cells [2]; dose 10 μM, individual replicates, NO release, LPS/IFNγ, 48 hours) was 2.03%. The “μM NO release” value (Microglial cells [2]; dose 25 μM, LPS/IFNγ, 48 hours) was 18.194 µM and 18.333 µM and 19.583 µM, the “μM NO release (No LPS average subtracted)” value (Microglial cells [2]; dose 25 μM, LPS/IFNγ, 48 hours) was 16.49 µM and 16.63 µM and 17.88 µM and the “% inhibition” value (Microglial cells [2]; dose 25 μM, individual replicates, NO release, LPS/IFNγ, 48 hours) was 9.64% and 8.88% and 2.03%. The “μM NO release” value (Microglial cells [2]; dose 50 μM, LPS/IFNγ, 48 hours) was 18.333 μM (2×) and 19.583 μM, the “μM NO release (No LPS average subtracted)” value (Microglial cells [2]; dose 50 μM, LPS/IFNγ, 48 hours) was 16.63 μM (2×) and 17.88 μM and the “% inhibition” value (Microglial cells [2]; dose 50 μM, individual replicates, NO release, LPS/IFNγ, 48 hours) was 8.88% (2×) and 2.03%. For the same compound, the “μM NO release” value (Microglial cells [2]; [5]) was 16.806 μM (2×) and 17.361 μM, the “μM NO release (No LPS average subtracted)” value (Microglial cells [2]; [5]) was 15.11 μM (2×) and 15.66 μM and the “% inhibition” value (Microglial cells [2]; dose 100 μM, individual replicates, NO release, LPS/IFNγ, 48 hours) was 14.20%. The “μM NO release” value (Microglial cells [2]; [6]) was 13.333 µM and 13.194 µM and 14.028 µM, the “μM NO release (No LPS average subtracted)” value (Microglial cells [2]; [6]) was 11.63 µM and 11.49 µM and 12.33 µM and the “% inhibition” value (Microglial cells [2]; dose 250 μM, individual replicates, NO release, LPS/IFNγ, 48 hours) was 37.03% and 32.46%. For the same compound, the “μM NO release” value (Microglial cells [2]; [7]) was 2.000 µM and 1.500 µM and 1.867 µM, the “μM NO release (No LPS average subtracted)” value (Microglial cells [2]; [7]) was 0.30 µM and -0.20 µM and 0.17 µM and the “% inhibition” value (Microglial cells [2]; dose 500 μM, individual replicates, NO release, LPS/IFNγ, 48 hours) was 101.10% and 99.09%. The “% inhibition” value ([3]; individual replicates, 50 µM) was −12.44% and −21.81% and −16.22%, the inhibition at 50 µM ([3]; Microglia, 24 h, read-out: Avg % Inhibition) was -16.8% and the inhibition at 50 µM (microglia) was 20%.
